Measurements: patent US9023340B2, “Wnt inhibitors for human stem cell differentiation” (ChemRegen, Inc., priority 2011, dated 2015)

Columns and labels:
Wnt signaling = test: Wnt assay (Super TOPflash/Wnt3a dual-luciferase reporter in 293T cells); type: cell-based; conditions: Homo sapiens, HEK-293T, TOPflash luciferase normalized to renilla; for inhibition at 1 µM: 1000 nM compound, read-out: Wnt Assay % inh. @ 1000 nM
Experimental: Wnt assay protocol: 293T cells were grown in DMEM-high glucose (phenol red) supplemented with 10% (v/v) FBS and 1 mM L-glutamine. 1 million (M) cells were transfected with 1 μg Super(7×)TOPflash (Addgene plasmid 12456: M50 Super 8× TOPflash; 1 μg Wnt3a)—and 0.1 μg TK-Renilla-Lux (pRL-TK vector)-vectors using lipofectamine 2000 reagent according to the manufacturer's protocol. Cells were allowed to adhere for 8-10 hours, lifted with trypsin/EDTA, centrifuged, homogenized and counted before seeding 25,000 cells/well onto 96-well plates. After letting cells settle and attach for 1-2 hours in the incubator, a dose of test compound (and media/DMSO controls) was added. Plates were incubated for 18-20 hours and luciferase activities were determined using a Dual-Luciferase assay kit according to the manufacturer's instructions. Chemiluminescence was recorder on a plate reader instrument, and firefly-derived luminescence was normalized against renilla luminescence. Data were derived from at least two independent experiments, with a minimum of three replicates per condition. Non-linear regression analysis (log dose/response) was done using Prism 5 software.

[1] = test system: hESC H9 lines carrying MYH6-mCherry reporters; test: Human embryonic stem cell high content screening assay (cardiogenesis, MYH6-mCherry reporter); type: cell-based; conditions: 1250 nM compound; MYH6-mCherry fluorescence readout normalized to DMSO treated wells
Experimental: Human embryonic stem cell (hESC) H9 lines carrying MYH6-mCherry reporters were maintained: in brief, cells were grown on a mouse embryonic fibroblast coated matrigel plate in Knock Out DMEM media supplemented with 20% Knock Out Serum Replacement and 8 ng/ml bFGF. For embryoid body (EB) differentiation, hESC were mechanically passaged onto gelatin-coated dishes preseeded with mouse embryonic fibroblasts. After 4 days hESC colonies were lifted off with a 10 minute 1 mg/ml collagenase IV treatment and directly differentiated in StemPro 34 with addition of 0.5 ng/ml Bmp4 from day 0-1, 10 ng/ml Bmp4, 5 ng/ml bFGF and 3 ng/ml Activin A from day 1-4. At day 4 and were dissociated gently to single cells with TrypLE. Single cells were then transferred in gelatin coated 384-well optical plates in StemPro 34 with […] FGF at a seeding density of 250,000 cells/cm^2. At this point cells were exposed to test compounds. At day 10, media with compound was removed and exchanged for a serum free media (SFM). T3, the thyroid hormone analog triiodothyronine, was added at day 10 to increase the red signal driven by the MYH6 promoter for more reliable imaging. […] For RT-qPCR analysis T3 treatment was omitted to avoid interference with the biological mRNA expression of MYH6. Media was changed to PBS at day 14 and red fluorescence was imaged on an InCell 1000 high throughput microscope. For the quantification of cardiac induction, image analysis was done with the Cyteseer Image Analysis Software package by measuring the total area and intensity of the MYH6-mCherry reporter in each well. The MYH6-expression levels indicated in the graphs represent the multiplication of the total area and intensity of red fluorescence.
For toxicity assessment the hESC cell line was engineered for screening with a H2B-GFP reporter, allowing quantification of the cell number. Using Cyteseer, total GFP signal was quantified in each well. Wells with a GFP reduction of 20% or more (relative to vehicle only controls) were flagged for toxicity and were manually confirmed under a bright field microscope for evidence of cell death.
For the screens, Z scores (Z score=(average of treated−average of DMSO)/StDev of DMSO) were calculated using the fluorescence readout for each concentration normalized to DMSO treated wells. Integrated Z scores over all concentrations were calculated by adding the Z scores of the 3 concentrations tested. Table 2 reports Z scores at a compound concentration of 1250 nM.

SMILES | inhibition at 1 µM (Wnt signaling) [%] | Cardiogenesis Assay Z score vs DMSO @ 1250 nM [1] | IC50 (Wnt signaling) [nM]
Cc1cncc(NC(=O)[C@H]2CC[C@H](N3C(=O)[C@@H]4[C@@H]5CC[C@@H](C5)[C@@H]4C3=O)CC2)c1 [Compound 21] | 49 ± 5 | – | –
O=C1CCCc2cccc(NC(=O)[C@H]3CC[C@H](N4C(=O)[C@@H]5[C@@H]6CC[C@@H](C6)[C@@H]5C4=O)CC3)c21 [Compound 14] | – | 69.6 | 19
O=C1[C@@H]2[C@@H]3CC[C@@H](C3)[C@@H]2C(=O)N1[C@H]1CC[C@H](C(=O)Nc2cccnc2)CC1 [Compound 1] | – | 0.6 | 42
O=C1[C@@H]2[C@@H]3CC[C@@H](C3)[C@@H]2C(=O)N1[C@H]1CC[C@H](C(=O)Nc2cccnc2Cl)CC1 [Compound 7] | – | 3.1 | 166
Cc1ccc(NC(=O)[C@H]2CC[C@H](N3C(=O)[C@@H]4[C@@H]5CC[C@@H](C5)[C@@H]4C3=O)CC2)cn1 [Compound 6] | 48 ± 7 | – | 1380
Cc1ccncc1NC(=O)[C@H]1CC[C@H](N2C(=O)[C@@H]3[C@@H]4CC[C@@H](C4)[C@@H]3C2=O)CC1 [Compound 20] | 0 | – | –
CC(=O)c1ccccc1NC(=O)C1CCC(N2C(=O)[C@@H]3[C@@H]4CC[C@@H](C4)[C@@H]3C2=O)CC1 (stereo partly shown) [Compound 12] | 91 ± 1 | 117.0 | 23
COc1ccc(NC(=O)[C@H]2CC[C@H](N3C(=O)[C@@H]4[C@@H]5CC[C@@H](C5)[C@@H]4C3=O)CC2)cn1 [Compound 5] | 75 ± 2 | – | 344
CC(=O)c1ccccc1NC(=O)[C@H]1CC[C@H](N2C(=O)[C@@H]3[C@@H]4CC[C@@H](C4)[C@@H]3C2=O)CC1 [Compound 3] | 91 ± 1 | 132.9 | 14
O=C1[C@@H]2[C@@H]3CC[C@@H](C3)[C@@H]2C(=O)N1[C@H]1CC[C@H](C(=O)Nc2cncc(O)c2)CC1 [Compound 13] | – | 99.2 | 152
O=C1[C@@H]2[C@@H]3CC[C@@H](C3)[C@@H]2C(=O)N1[C@H]1CC[C@H](C(=O)Nc2ccnc(Cl)c2)CC1 [Compound 9] | 68 ± 4 | – | 374
CC(=O)c1ncccc1NC(=O)[C@H]1CC[C@H](N2C(=O)[C@@H]3[C@@H]4CC[C@@H](C4)[C@@H]3C2=O)CC1 [Compound 17] | – | 236.2 | 2
O=C1c2ccccc2-c2cccc(NC(=O)[C@H]3CC[C@H](N4C(=O)[C@@H]5[C@@H]6CC[C@@H](C6)[C@@H]5C4=O)CC3)c21 [Compound 11] | – | 42.7 | 193
O=C1[C@@H]2[C@@H]3CC[C@@H](C3)[C@@H]2C(=O)N1[C@H]1CC[C@H](C(=O)Nc2ccc(C(F)(F)F)nc2)CC1 [Compound 8] | 46 ± 7 | – | 870
O=C1[C@@H]2[C@@H]3CC[C@@H](C3)[C@@H]2C(=O)N1[C@H]1CC[C@H](C(=O)Nc2ccccn2)CC1 [Compound 4] | – | 1.8 | 86
COC(=O)c1ccccc1NC(=O)[C@H]1CC[C@H](N2C(=O)[C@@H]3[C@@H]4CC[C@@H](C4)[C@@H]3C2=O)CC1 [Compound 10] | – | 44.9 | 67
O=C1[C@@H]2[C@@H]3CC[C@@H](C3)[C@@H]2C(=O)N1[C@H]1CC[C@H](C(=O)Nc2ccncc2)CC1 [Compound 2] | – | 0.2 | 47
CC(=O)c1ccncc1NC(=O)[C@H]1CC[C@H](N2C(=O)[C@@H]3[C@@H]4CC[C@@H](C4)[C@@H]3C2=O)CC1 [Compound 18] | – | 0.2 | 287
O=C1[C@@H]2[C@@H]3CC[C@@H](C3)[C@@H]2C(=O)N1[C@H]1CC[C@H](C(=O)Nc2ccc(Br)cn2)CC1 [Compound 19] | 68 ± 4 | – | –
